Reference: US7087722B1, “Fibrin binding domain polypeptides and uses and methods of producing same” (Savient Pharmaceuticals, Inc., priority 1988, dated 2006)

Key:
[1] = test system: clotting of citrated healthy human plasma by thrombin; experiment: Plasma Thrombin Time (TT), clotting of citrated healthy human plasma; format: biochemical; conditions: 1 mM spermidine; for "TT" Values (%): no addition: 100
Method: The effect of the r31 kD polypeptide on clotting of whole blood was measured using the clinical laboratory parameter defined as Thrombin-Time. In this reaction aliquots of 100 μl citrated healthy human plasma were mixed with 100 μl PBS and either the transglutaminase inhibitor spermidine, or with reduced-carboxyamidated p31 kD or reoxidized-refolded r31 kD. 200 μl thrombin solution was added to each aliquot while continuously mixing. The time from the addition of the thrombin to the formation of clot was measured, and is expressed as “TT” in seconds (Table B).

[2] = biological target: T1, guinea-pig liver transglutaminase (Sigma) (UniProt P08587); experiment: Binding of 125I-r31 kD FBD to extracellular matrix (ECM) of endothelial cells in the presence of exogenous transglutaminase; format: biochemical; conditions: 0.3 μM 125I-r31 kD FBD; 3 mM CaCl2; 0.02 units/ml transglutaminase; 45 minutes
T1 construct: purchased Sigma; host or cells: guinea-pig liver
T1 sequence (P08587 2-690): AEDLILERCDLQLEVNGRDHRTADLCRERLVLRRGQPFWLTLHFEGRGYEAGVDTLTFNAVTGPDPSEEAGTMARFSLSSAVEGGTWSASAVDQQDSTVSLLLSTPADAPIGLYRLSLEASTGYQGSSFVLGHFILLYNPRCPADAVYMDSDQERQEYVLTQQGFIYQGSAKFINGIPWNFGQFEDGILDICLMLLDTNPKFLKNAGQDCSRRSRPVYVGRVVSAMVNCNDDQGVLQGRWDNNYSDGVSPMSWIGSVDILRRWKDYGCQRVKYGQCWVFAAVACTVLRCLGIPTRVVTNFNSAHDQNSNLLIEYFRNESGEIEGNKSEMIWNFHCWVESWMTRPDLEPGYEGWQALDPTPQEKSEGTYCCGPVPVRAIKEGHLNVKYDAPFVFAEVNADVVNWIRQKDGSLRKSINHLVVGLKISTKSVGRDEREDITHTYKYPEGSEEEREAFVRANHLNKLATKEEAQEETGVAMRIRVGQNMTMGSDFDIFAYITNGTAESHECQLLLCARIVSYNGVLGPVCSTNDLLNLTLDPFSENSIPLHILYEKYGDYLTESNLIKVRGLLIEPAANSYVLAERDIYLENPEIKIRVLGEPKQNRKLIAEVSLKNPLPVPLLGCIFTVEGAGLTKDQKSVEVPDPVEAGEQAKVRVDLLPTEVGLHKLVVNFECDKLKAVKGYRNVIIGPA
Method: FIG. 51. Binding of ^125I-r31 kD FBD to ECM in the presence of various constituents
0.3 μM of ^125I-r31 kD FBD was incubated with extracellular matrix of endothelial cells (ECM) as described by Eld r et al. (20) in a 37° C. CO2-incubator in the presence of saline, 3 mM CaCl2 and 0.02 units/ml of guinea-pig liver transglutaminase (TG) and other constituents as indicated in the figure. The control was done in the absence of transglutaminase.
The reactions were terminated after 45 minutes by washing five times with PBS. Plates were extracted with a solution of 0.5% SDS and aliquots of the extracted material were measured in a gamma counter.
The binding was now further characterized by examination of the binding of 0.3 μM ^125I-r31 kD FBD to ECM in the presence and absence of exogenous transglutaminase; additionally the binding in the presence of transglutaminase was examined in the presence of each of heparin, fibronectin or spermidine.

`NCCCCNCCCN` [spermidine] was tested, and the “"TT" Values (\)” value ([1]; thrombin conc. 1.25 (μ/ml)) was 105, the “"TT" Values” ([1]; thrombin conc. 1.25 (μ/ml), no addition: 55.4) was 114 s and the “"TT" Values (%)” value ([1]; thrombin conc. 1.25 (μ/ml)) was 205%. For the same compound, the “"TT" Values (\)” value ([1]; thrombin conc. 2.5 (μ/ml)) was 72, the “"TT" Values” ([1]; thrombin conc. 2.5 (μ/ml), no addition: 25.5) was 44 s and the “"TT" Values (%)” value ([1]; thrombin conc. 2.5 (μ/ml)) was 172%. The “effect on binding of r31 kD FBD to ECM in the presence of transglutaminase” value [2] was “inhibits the binding”.
